# Test results as given in US20060058380A1, “Novel aminobenzophenone compounds” (priority 2002, published 2006).
# Experiments:
# [1] = Discolouring of compounds on filter paper before and after sun-test illumination; assay type: physicochemical; design: key: 0: No colour; 1: Very faint colour; 2: Light colour; 3: Medium colour; 4: Strong colour; details: for Colour score prior to illumination: 10 mM in Ethanol:Labrasol:water 65:25:10, 10 ul spot on filter paper dried 15 minutes; for Colour score after illumination: spots illuminated in sun-test cabinet (Heraeus Suntest CPS), outdoor illumination, 5 minutes
# Procedure: The discolouring of compounds of formula I was investigated in a comparison with known aminobenzophenones.
# Compounds were dissolved in DMSO at 100 mM. The solutions were diluted 1:10 in the test vehicle (Ethanol:Labrasol:water 65:25:10) just prior to the experiment. 10 ul aliquots were placed in droplets on filter paper and allowed to dry for 15 minutes into spots. Then the colour of the spots was scored using the following scale:
# The spots were illuminated in a sun-test cabinet (Heraeus Suntest CPS) set for outdoor illumination for 5 minutes. The scoring was repeated after illumination.
# IL-1β = experiment: Inhibition of IL-1β secretion in LPS stimulated peripheral blood mononuclear cells; assay type: cell-based; details: PBMC; LPS stimulated human peripheral blood mononuclear cells, 18 hours, ELISA; read-out: The median inhibition concentration (IC50, nM) IL-1β
# Procedure: (§1) To study the effect of the compound of the present invention in vitro the inhibition of the IL-1β and TNF-α secretion was measured using the following procedure:
# (§2) Cytokine production was measured in the media from lipopolysaccharide (LPS) stimulated peripheral blood mononuclear cells. The mononuclear cells were isolated from human peripheral blood by Lymphoprep® (Nycomed, Norway) fractionation and suspended in RPMI 1640 (growth medium) with foetal calf serum (FCS, 2%), at a concentration of 5×10^5 cells/ml. The cells were incubated in 24-well tissue culture plates in 1 ml aliquots. Test compounds were dissolved in dimethylsulfoxide (DMSO, 10 mM) and were diluted with the medium. Compounds were added to the cells for 30 minutes, then LPS ([…] final concentration) was added. The plates were incubated for 18 hours, and the concentration of IL-1β and TNF-α in the medium was determined by enzyme-linked immunosorbent assays. The median inhibitory concentrations (IC50) of the compounds were calculated.
# comedones = experiment: Rhino mouse model, reduction of number of comedones; assay type: in vivo; details: topical on the back daily for 21 days, 45 mM in acetone, percentage change compared to untreated control group
# Procedure: The rhino mouse is an in vivo model for the study of hyperplastic and comedolytic potency of compounds used in the treatment of acne. The rhino mouse has follicles on the skin, the orifices of which are distended with horny material, and these structures resembles human comedones.
# The model uses mouse of the strain RHJ/LeJ Rhino, hr^rh/hr^rh. The mice are treated topically on the back daily for 21 days with the test compound. Compounds are tested for their ability to reduce the number of comedones.
# The number of comedones in the skin of the mouse is determined by histological examination. The percentage change in the number of comedones compared to an untreated control group is calculated. The compounds were applied at 45 mM dissolved in acetone.
# TNF-α = experiment: Inhibition of TNF-α secretion in LPS stimulated peripheral blood mononuclear cells; assay type: cell-based; details: PBMC; LPS stimulated human peripheral blood mononuclear cells, 18 hours, ELISA; read-out: The median inhibition concentration (IC50, nM) TNF-α
# Procedure: as §1, §2
Colour score prior to illumination [1],Colour score after illumination [1],IC50 (IL-1β),IC50 (TNF-α),SMILES,Reduction in number of comedones (comedones)
0,0,–,–,"COCC(=O)OC(C)OC(=O)N(c1ccc(C(=O)c2ccccc2C)c(Cl)c1)c1ccc(F)cc1C (stereo not shown) [Compound 119, Methoxy-acetic acid 1-[[3-chloro-4-(2-methyl-benzoyl)-phenyl]-(4-fluoro-2-methyl-phenyl)-carbamoyloxy]-ethyl ester]",–
0,0,25 nM,12 nM,"CCCC(=O)OC(C)OC(=O)N(c1ccc(C(=O)c2ccccc2C)c(Cl)c1)c1ccc(F)cc1C (stereo not shown) [Compound 112, Butyric acid 1-[[3-chloro-4-(2-methyl-benzoyl)-phenyl]-(4-fluoro-2-methyl-phenyl)-carbamoyloxy]-ethyl ester]",−56%
–,–,10 nM,7.9 nM,"Cc1ccccc1C(=O)c1ccc(N(C(=O)OC(C)OC(=O)C(C)(C)O)c2ccc(F)cc2C)cc1Cl (stereo not shown) [Compound 128, 2-Hydroxy-2-methyl-propionic acid 1-[[3-chloro-4-(2-methyl-benzoyl)-phenyl]-(4-fluoro-2-methyl-phenyl)-carbamoyloxy]-ethyl ester]",–
1,3,–,–,"Cc1ccccc1C(=O)c1ccc(Nc2ccc(Br)cc2N)cc1Cl [Reference b, 4-(2-amino-4-bromo-phenylamino)-2-chloro-2′-methylbenzophenone, reference compound]",–
0,0,–,–,"Cc1ccccc1C(=O)c1ccc(N(C(=O)OC(C)OC(=O)c2cccnc2)c2ccc(F)cc2C)cc1Cl (stereo not shown) [Compound 147, Nicotinic acid 1-[[3-chloro-4-(2-methyl-benzoyl)-phenyl]-(4-fluoro-2-methyl-phenyl)-carbamoyloxy]-ethyl ester]",–
0,0,50 nM,10 nM,"CCCC(=O)OCOC(=O)N(c1ccc(C(=O)c2ccccc2C)c(Cl)c1)c1ccc(F)cc1C [Compound 113, Butyric acid [[3-chloro-4-(2-methyl-benzoyl)-phenyl]-(4-fluoro-2-methyl-phenyl)-carbamoyloxy]-methyl ester]",−72%
–,–,7.9 nM,5 nM,"C/C=C/C(=O)OC(C)OC(=O)N(c1ccc(C(=O)c2ccccc2C)c(Cl)c1)c1ccc(F)cc1C (stereo not shown) [Compound 137, (E)-But-2-enoic acid 1-[[3-chloro-4-(2-methyl-benzoyl)-phenyl]-(4-fluoro-2-methyl-phenyl)-carbamoyloxy]-ethyl ester]",–
0,0,79 nM,20 nM,"Cc1ccccc1C(=O)c1ccc(N(C(=O)OC(C)OC(=O)CC(C)C)c2ccc(F)cc2C)cc1Cl (stereo not shown) [Compound 133, 3-Methyl-butyric acid 1-[[3-chloro-4-(2-methyl-benzoyl)-phenyl]-(4-fluoro-2-methyl-phenyl)-carbamoyloxy]-ethyl ester]",−61%
1,3,–,–,"CNc1ccccc1C(=O)c1ccc(Nc2ccccc2N)cc1Cl [Reference c, 4-(2-aminophenylamino)-2-chloro-2′-methylaminobenzophenon, reference compound]",–
0,3,32 nM,7.9 nM,"Cc1cc(F)ccc1Nc1ccc(C(=O)c2ccccc2C)c(Cl)c1 [Reference a, 2-chloro-4-(4-fluoro-2-methyl-phenylamino)-2′-methylbenzophenone, reference compound]",–
